In patent publication US6573286B1, “2-(2,6-disubstituted phenyl)-4-aryl-5-alkyl-1,3-oxazoline compounds” (Dow AgroSciences LLC, priority 2002, dated 2003):

Legend:
Format in all cases: in vivo
[1] = system: tobacco budworm (Heliothis virescens); assay: Insecticidal test for tobacco budworm, treated cotton cotyledon leaf disc; conditions: Heliothis virescens, foliar, 120 h, 2nd instar larvae on dipped cotton cotyledon discs, 5 days, read-out: TBW: activity against tobacco budworm (% Control rating)
Method: (§1) Insecticidal test for tobacco budworm (Heliothis virescens), beet armyworm (Spodoptera exigua), and cabbage looper (Trichoplusia ni). To prepare test solution, the test compound was formulated at 400 ppm in 7.5 mL of 2 acetone:1 tap water. 250 μL of the test solution was pipetted upon the surface of 8 mL of lepidopteran diet (modified Shorey) contained in each of five one-ounce plastic cups (one cup=1 replication). […] After air-drying, the treated leaf discs were placed individually into one-ounce plastic cups. Each dried, treated cotton cotyledon disc was infested with a 2nd instar tobacco budworm larva, and each cabbage leaf disc was infested with a 2nd instar cabbage looper larva. Cups containing the treated substrates and larvae were capped and then held in a growth chamber at 25° C., 50-55% RH, and 14 hr light:10 hr dark for 5 days.

[2] = system: beet armyworm (Spodoptera exigua); assay: Insecticidal test for beet armyworm, treated lepidopteran diet; conditions: Spodoptera exigua, 120 h, 2nd instar larvae on treated diet, 5 days, read-out: BAW: activity against beet armyworm (% Control rating)
Method: as §1

[3] = system: cabbage looper (Trichoplusia ni); assay: Insecticidal test for cabbage looper, treated cabbage leaf disc; conditions: Trichoplusia ni, foliar, 120 h, 2nd instar larvae on dipped cabbage leaf discs, 5 days, read-out: CL: activity against cabbage looper (% Control rating)
Method: as §1

[4] = system: cotton aphid (Aphis gossypii); assay: Insecticidal test for cotton aphid, sprayed squash cotyledons; conditions: 50 ppm spray, graded after 3 days
Method: Insecticidal test for cotton aphid (Aphis gossypii) To prepare spray solutions, 1 mg of each test compound was dissolved into 1 mL of a 90:10 acetone:ethanol solvent. This 1 mL of chemical solution was added to 19 mL of water containing 0.05% Tween 20 surfactant to produce a 50 ppm spray solution. Squash cotyledons were infested with cotton aphid (all life stages) 16-20 hours prior to application of spray solution. The solution was sprayed on both sides of each infested squash cotyledon (0.5 mL×2 each side) with a sweeping action until runoff. The plants were allowed to air dry and held for 3 days in a controlled room at 26° C. and 40% RH after which time the test was graded. Grading was by actual count using a dissecting microscope and comparison of test counts to the untreated check.

[5] = system: two-spotted spider mite (Tetranychus urticae); assay: Insecticidal test for two-spotted spider mite, ovicide method; conditions: Tetranychus urticae, foliar, 144 h, ovicide method on cotton leaf discs, 6 days, read-out: SM: activity against two-spotted spider mite (% Control rating)
Method: Insecticidal test for two-spotted spider mite (Tetranychus urticae) Ovicide Method: Ten adult female two-spotted spider mites were placed on eight 2.2 cm leaf discs of cotton leaf, allowed to oviposit over 24 hours, and thereafter removed. […] Discs were placed on an agar substrate and held at 24° C. and 90% RH for 6 days.

[6] = system: Sweetpotato Whitefly (Bemisia tabacia); assay: Insecticidal test for Sweetpotato Whitefly, sprayed cotton plants; conditions: Bemisia, 312 h, 200 ppm spray, large nymphs counted after 13 days, read-out: WF: activity against whitefly (% Control rating)
Method: Insecticidal test for Sweetpotato Whitefly (Bemisia tabacia) Four mg of each test compound were dissolved by adding 4 mL of a 90:10 acetone:ethanol solvent mixture to the vial containing the sample compound. This solution was added to 16 mL of water containing 0.05% Tween 20 surfactant to produce 20 mL of a 200 ppm spray solution. Five-week-old cotton plants reared in a greenhouse were stripped of all foliage except for the two uppermost true leaves that were greater than 5 cm in diameter. These plants were then placed into a laboratory colony of whiteflies for two days for oviposition by the colony females. All whiteflies were then removed from the test plants with pressurized air. The spray solution was then applied to the test plants with a hand-held syringe fitted with hollow cone nozzle. One mL spray solution was applied to each leaf top and bottom for a total of 4 mL per plant. Four replications of each test compound utilized a total of 16 mL spray solution. Plants were air dried and then placed in a holding chamber (28° C. and 60% RH) for 13 days. Compound efficacy was evaluated by counting, under an illuminated magnifying glass, the number of large nymphs (3rd-4th instar) per leaf. Percent control based on reduction of large nymphs of a test compound compared to solution-only (no test compound) sprayed plants is reported in Table 1-8.

Question: Which pest or weed control at 400 ppm [1] does the source give for C[C@@H]1OC(c2c(F)cccc2F)=N[C@@H]1c1ccc(I)cc1 (racemic) [Compound 1, (4R,5S)- and (4S,5R)-4-(4-iodophenyl)-2-(2,6-difluorophenyl)-5-methyl-4,5-dihydro-1,3-oxazole] here?
Answer: The pest or weed control at 400 ppm was under 50%.

Question: And the pest or weed control at 400 ppm [2]?
Answer: Its pest or weed control at 400 ppm is under 50%.

Question: And the pest or weed control at 400 ppm [3]?
Answer: Its pest or weed control at 400 ppm is 60 to 69%.

Question: And the “CA: activity against cotton aphid (% Control rating)” value [4]?
Answer: The value was “A (90-100)”.

Question: What about the pest or weed control at 2.5 ppm [5] of the same molecule?
Answer: The pest or weed control at 2.5 ppm was 90 to 100%.

Question: What about the pest or weed control at 200 ppm [6] of the same molecule?
Answer: Its pest or weed control at 200 ppm is 60 to 69%.
